Our source for the Activity, MIC and hemolysis values is ChEMBL document CHEMBL1145390, “Synthesis and preliminary biological characterization of new semisynthetic derivatives of ramoplanin” (J Med Chem, 2007).

A short description of data set [1]: Toxicity assessed as hemolysis in erythrocytes at 90 mg/L. Format: cell-based, Erythrocyte. Particulars: human; for Activity: erythrocyte; for hemolysis at 90 mg/L: erythrocytes, read-out: Activity.
For the next data set, the system named is Escherichia coli. Briefly: Antibacterial activity against Escherichia coli SKF-12140 after 24 hrs by broth microdilution method. Format: functional. For orientation: Dilution methods test growth across graded concentrations, often in twofold steps.
The subject of data set [2] is Staphylococcus aureus. In words: Antibacterial activity against Staphylococcus aureus Smith after 24 hrs by broth microdilution method. Format: functional.
Data set [3] concerns Staphylococcus aureus. In words: Antibacterial activity against methicillin-resistant Staphylococcus aureus clinical isolate after 24 hrs by broth microdilution method. The format is functional.
Data set [4] relates to Staphylococcus aureus. Briefly: Antibacterial activity against vancomycin-intermediate resistant Staphylococcus aureus clinical isolate after 24 hrs by broth microdilution method. The format is functional.
The test system of data set [5] is Enterococcus faecium. Briefly: Antibacterial activity against Enterococcus faecium after 24 hrs by broth microdilution method. The format is functional.
The subject of data set [6] is Enterococcus faecalis. In words: Antibacterial activity against Enterococcus faecalis after 24 hrs by broth microdilution method. The format is functional.
The next data set concerns Streptococcus pyogenes. Briefly: Antibacterial activity against Streptococcus pyogenes C203 after 24 hrs by broth microdilution method. The format is functional. Particulars: C203, 24 h.
The test system of data set [7] is Enterococcus faecium. Briefly: Antibacterial activity against vancomycin A-resistant Enterococcus faecium clinical isolate after 24 hrs by broth microdilution method. Format: functional.
Data set [8] in a line: Toxicity assessed as hemolysis in erythrocytes at 180 mg/L. Format: cell-based, Erythrocyte. The settings on record: human; for Activity: erythrocyte; for hemolysis at 180 mg/L: erythrocytes, read-out: Activity.
For data set [9], the system named is Staphylococcus aureus. Briefly: Antibacterial activity against methicillin-resistant and vancomycin-intermediate resistant Staphylococcus aureus clinical isolate after 24 hrs by broth microdilution method. The format is functional.
For a further data set, the system named is Candida albicans. Briefly: Antifungal activity against Candida albicans SKF-2270 after 24 hrs by broth microdilution method. Format: functional.
The subject of data set [10] is Enterococcus faecalis. Briefly: Antibacterial activity against vancomycin A-resistant Enterococcus faecalis after 24 hrs by broth microdilution method. The format is functional.

In brackets after ≈: the same amount, converted by molar mass. Where only a bound is given, the exact number is not on record here.

As usually defined, the MIC is the least concentration at which growth counts as inhibited. In the case of `CC(C)C[C@@H]1NC(=O)CNC(=O)[C@H](c2ccc(O)cc2)NC(=O)[C@@H]([C@@H](C)O)NC(=O)[C@H](c2ccc(O[C@H]3O[C@H](CO)[C@@H](O)[C@H](O)[C@@H]3O[C@H]3O[C@H](CO)[C@@H](O)[C@H](O)[C@@H]3O)cc2)NC(=O)[C@@H](CCCN)NC(=O)[C@H](Cc2ccccc2)NC(=O)[C@H]([C@@H](C)O)NC(=O)[C@@H](c2ccc(O)cc2)NC(=O)[C@H](c2ccc(O)cc2)NC(=O)[C@@H](C(C)C)NC(=O)[C@@H](CCCN)NC(=O)[C@@H](c2ccc(O)cc2)NC(=O)[C@@H](CNC(=O)[C@H](CC(N)=O)NC(=O)Cc2ccccc2)[C@@H](C(N)=O)OC(=O)[C@H](c2ccc(O)c(Cl)c2)NC(=O)[C@@H](C)NC1=O`, the Activity in data set [1] and in [8] was 0% each time. In addition, the MIC in the data set on Escherichia coli is over 32 µg/mL; with Staphylococcus aureus [2] (read-out: MIC), 0.002 µg/mL (≈ 0.000785 µM); in the data set with Staphylococcus aureus [3] (read-out: MIC), 0.002 µg/mL (≈ 0.000785 µM); in the data set on Staphylococcus aureus [4], 0.008 µg/mL (≈ 0.00314 µM); with Enterococcus faecium [5] (read-out: MIC), 0.008 µg/mL (≈ 0.00314 µM); with Enterococcus faecalis [6] (read-out: MIC), 0.004 µg/mL (≈ 0.00157 µM). Further, the MIC with Streptococcus pyogenes was 0.06 µg/mL (≈ 0.0235 µM); in the data set with Enterococcus faecium [7] (read-out: MIC), 0.004 µg/mL (≈ 0.00157 µM); with Staphylococcus aureus [9], 16 µg/mL (≈ 6.28 µM); against Candida albicans, over 32 µg/mL; in the data set on Enterococcus faecalis [10] (read-out: MIC), 0.004 µg/mL (≈ 0.00157 µM).
As to `CC(C)C[C@@H]1NC(=O)CNC(=O)[C@H](c2ccc(O)cc2)NC(=O)[C@@H]([C@@H](C)O)NC(=O)[C@H](c2ccc(O[C@H]3O[C@H](CO)[C@@H](O)[C@H](O)[C@@H]3O[C@H]3O[C@H](CO)[C@@H](O)[C@H](O)[C@@H]3O)cc2)NC(=O)[C@@H](CCCN)NC(=O)[C@H](Cc2ccccc2)NC(=O)[C@H]([C@@H](C)O)NC(=O)[C@@H](c2ccc(O)cc2)NC(=O)[C@H](c2ccc(O)cc2)NC(=O)[C@@H](C(C)C)NC(=O)[C@@H](CCCN)NC(=O)[C@@H](c2ccc(O)cc2)NC(=O)[C@@H](CNC(=O)[C@H](CC(N)=O)NC(=O)Cc2cccc3ccccc23)[C@@H](C(N)=O)OC(=O)[C@H](c2ccc(O)c(Cl)c2)NC(=O)[C@@H](C)NC1=O`, the Activity in data set [1] stood at 15%; in [8] it was 28%. Also, the MIC in the data set with Escherichia coli was over 32 µg/mL; in the data set on Staphylococcus aureus [2], 0.25 µg/mL (≈ 0.0962 µM); with Staphylococcus aureus [3], 0.125 µg/mL (≈ 0.0481 µM); against Staphylococcus aureus [4], 0.0005 µg/mL (≈ 0.000192 µM); against Enterococcus faecium [5], 0.25 µg/mL (≈ 0.0962 µM); against Enterococcus faecalis [6] it was 0.125 µg/mL (≈ 0.0481 µM). For the same molecule, the MIC in the data set with Streptococcus pyogenes was at most 0.03 µg/mL; in the data set on Enterococcus faecium [7], 0.25 µg/mL (≈ 0.0962 µM); with Staphylococcus aureus [9], 1 µg/mL (≈ 0.385 µM); in the data set on Candida albicans, over 32 µg/mL; against Enterococcus faecalis [10], 0.125 µg/mL (≈ 0.0481 µM).
As to `CCCC(=O)N[C@@H](CC(N)=O)C(=O)NC[C@@H]1C(=O)N[C@H](c2ccc(O)cc2)C(=O)N[C@H](CCCN)C(=O)N[C@H](C(C)C)C(=O)N[C@@H](c2ccc(O)cc2)C(=O)N[C@H](c2ccc(O)cc2)C(=O)N[C@@H]([C@@H](C)O)C(=O)N[C@@H](Cc2ccccc2)C(=O)N[C@H](CCCN)C(=O)N[C@@H](c2ccc(O[C@H]3O[C@H](CO)[C@@H](O)[C@H](O)[C@@H]3O[C@H]3O[C@H](CO)[C@@H](O)[C@H](O)[C@@H]3O)cc2)C(=O)N[C@H]([C@@H](C)O)C(=O)N[C@@H](c2ccc(O)cc2)C(=O)NCC(=O)N[C@@H](CC(C)C)C(=O)N[C@H](C)C(=O)N[C@@H](c2ccc(O)c(Cl)c2)C(=O)O[C@@H]1C(N)=O`, the hemolysis at 90 mg/L in data set [1] came out at 0%. Moreover, the MIC in the data set on Escherichia coli (read-out: MIC) is over 32 µg/mL; in the data set on Staphylococcus aureus [2] (read-out: MIC), over 32 µg/mL; in the data set with Staphylococcus aureus [3] (read-out: MIC), 32 µg/mL (≈ 12.8 µM); with Staphylococcus aureus [4], over 32 µg/mL; in the data set with Enterococcus faecium [5] (read-out: MIC), 32 µg/mL (≈ 12.8 µM); in the data set with Enterococcus faecalis [6] (read-out: MIC), 16 µg/mL (≈ 6.4 µM). Moreover, the MIC in the data set on Streptococcus pyogenes (read-out: MIC) was 0.5 µg/mL (≈ 0.2 µM); in the data set with Enterococcus faecium [7] (read-out: MIC), 16 µg/mL (≈ 6.4 µM); with Staphylococcus aureus [9] (read-out: MIC), over 32 µg/mL; in the data set with Candida albicans (read-out: MIC), over 32 µg/mL; with Enterococcus faecalis [10] (read-out: MIC), 16 µg/mL (≈ 6.4 µM). In addition, in [8], the hemolysis at 180 mg/L worked out at 2%.
Take `Cc1ccc(C(=O)N[C@@H](CC(N)=O)C(=O)NC[C@@H]2C(=O)N[C@H](c3ccc(O)cc3)C(=O)N[C@H](CCCN)C(=O)N[C@H](C(C)C)C(=O)N[C@@H](c3ccc(O)cc3)C(=O)N[C@H](c3ccc(O)cc3)C(=O)N[C@@H]([C@@H](C)O)C(=O)N[C@@H](Cc3ccccc3)C(=O)N[C@H](CCCN)C(=O)N[C@@H](c3ccc(O[C@H]4O[C@H](CO)[C@@H](O)[C@H](O)[C@@H]4O[C@H]4O[C@H](CO)[C@@H](O)[C@H](O)[C@@H]4O)cc3)C(=O)N[C@H]([C@@H](C)O)C(=O)N[C@@H](c3ccc(O)cc3)C(=O)NCC(=O)N[C@@H](CC(C)C)C(=O)N[C@H](C)C(=O)N[C@@H](c3ccc(O)c(Cl)c3)C(=O)O[C@@H]2C(N)=O)cc1`: the hemolysis at 90 mg/L in data set [1] is 5%. Further, the minimum inhibitory concentration (MIC) was over 32 µg/mL with Escherichia coli (read-out: MIC); 4 µg/mL (≈ 1.57 µM) in the data set with Staphylococcus aureus [2] (read-out: MIC); 4 µg/mL (≈ 1.57 µM) with Staphylococcus aureus [3] (read-out: MIC); 8 µg/mL (≈ 3.14 µM) against Staphylococcus aureus [4]; 4 µg/mL (≈ 1.57 µM) in the data set with Enterococcus faecium [5] (read-out: MIC); 2 µg/mL (≈ 0.785 µM) in the data set with Enterococcus faecalis [6] (read-out: MIC). The MIC with Streptococcus pyogenes (read-out: MIC) is under 0.03 µg/mL; in the data set on Enterococcus faecium [7] (read-out: MIC), 2 µg/mL (≈ 0.785 µM); in the data set on Staphylococcus aureus [9] (read-out: MIC) it was 4 µg/mL (≈ 1.57 µM); in the data set with Candida albicans (read-out: MIC), over 32 µg/mL; in the data set with Enterococcus faecalis [10] (read-out: MIC), 2 µg/mL (≈ 0.785 µM). Besides, in [8], the hemolysis at 180 mg/L turned out to be 3%.
For `CCCCCC(=O)N[C@@H](CC(N)=O)C(=O)NC[C@@H]1C(=O)N[C@H](c2ccc(O)cc2)C(=O)N[C@H](CCCN)C(=O)N[C@H](C(C)C)C(=O)N[C@@H](c2ccc(O)cc2)C(=O)N[C@H](c2ccc(O)cc2)C(=O)N[C@@H]([C@@H](C)O)C(=O)N[C@@H](Cc2ccccc2)C(=O)N[C@H](CCCN)C(=O)N[C@@H](c2ccc(O[C@H]3O[C@H](CO)[C@@H](O)[C@H](O)[C@@H]3O[C@H]3O[C@H](CO)[C@@H](O)[C@H](O)[C@@H]3O)cc2)C(=O)N[C@H]([C@@H](C)O)C(=O)N[C@@H](c2ccc(O)cc2)C(=O)NCC(=O)N[C@@H](CC(C)C)C(=O)N[C@H](C)C(=O)NC(c2ccc(O)c(Cl)c2)C(=O)O[C@@H]1C(N)=O` (stereo not given in full), in [1], the hemolysis at 90 mg/L was determined as 0%. Moreover, the MIC in the data set on Escherichia coli (read-out: MIC) is over 32 µg/mL; in the data set with Staphylococcus aureus [2] (read-out: MIC), 4 µg/mL (≈ 1.58 µM); in the data set with Staphylococcus aureus [3] (read-out: MIC), 4 µg/mL (≈ 1.58 µM); in the data set on Staphylococcus aureus [4] it was 16 µg/mL (≈ 6.33 µM); with Enterococcus faecium [5] (read-out: MIC), 4 µg/mL (≈ 1.58 µM); in the data set on Enterococcus faecalis [6] (read-out: MIC), 2 µg/mL (≈ 0.791 µM). In addition, the minimal inhibitory concentration (MIC) with Streptococcus pyogenes (read-out: MIC) is 0.125 µg/mL (≈ 0.0494 µM); in the data set on Enterococcus faecium [7] (read-out: MIC), 4 µg/mL (≈ 1.58 µM); in the data set with Staphylococcus aureus [9] (read-out: MIC), 32 µg/mL (≈ 12.7 µM); in the data set on Candida albicans (read-out: MIC), over 32 µg/mL; in the data set on Enterococcus faecalis [10] (read-out: MIC) it was 2 µg/mL (≈ 0.791 µM). Besides, the hemolysis at 180 mg/L in data set [8] worked out at 8%.
